Results reported in patent US20260014129A1, “MITOCHONDRIAL PYRUVATE METABOLISM INHIBITORS FOR TREATING CHRONIC MYELOID LEUKEMIA” (The University Court of the University of Glasgow, priority 2022, published 2026).

Assays:
[1] = test system: CML CD34+ cells; test: Patient-derived xenograft of CML CD34+ cells in NRG-W41 mice, bone marrow flow cytometry; format: in vivo, human; settings: 4 weeks
Experimental: Treatment was given for 4 weeks. For treatment with asciminib (ABL001) plus MSDC-0160, twelve weeks following transplant, drug treatment was started with both asciminib (Fisher Scientific Cat #1642956) dosed at 10 mg/kg/day (5 mg/kg BID); oral gavage and MSDC-0160 (Apex Biotechnology: Cat #B3702) dosed at 30 mg/kg; oral gavage once daily. Treatment was given for 4 weeks. At the respective endpoints, bone marrow cells were collected. This was done by placing inverted cut leg bones into 0.5 mL Eppendorf tubes with holes at bottom. These in turn were placed within 1.5 mL Eppendorf tubes containing PBS, centrifuged (12,000 RCF, 20 seconds). Cells were stained (300 μl/test) with anti-mouse (APC-Cy7 BD Biosciences: Cat #557659, RRID: AB_396774, 1 μl), anti-human CD45 (FITC; BD Biosciences: Cat #555482, RRID: AB_395874, 10 μl), anti-human CD34 (APC; BD Biosciences: Cat #555824, RRID: AB_398614, 2 μl) and anti-human CD38 (PerCP; BioLegend: Cat #303520, RRID: AB_893313, 2 μl) antibodies for flow cytometry analysis as described above.

[2] = test system: CML CD34+ cells; test: 13C stable isotope tracing (glucose, glutamine, palmitate) in primary CML CD34+ cells; format: cell-based, human; settings: nilotinib treatment, data not shown
Experimental: (§1) For conjugation of palmitate, a 20 mM stock was made in 100% EtOH. This was incubated on a shaking heater, 60° C. until the solution clarified. The palmitate was then added to 10% BSA (ultra-fatty acid free in EBSS, Roche, 03117057001) to give a palmitate:BSA ratio of 1:3 BSA. This solution was left for 15 min in water bath (37° C.), and then added to final concentration in complete medium. For cell line experiments, the medium was RPMI with 10% dialysed FBS and 1% penicillin/streptomycin. For tracing experiments 11 mM ^13C6 glucose was added to glucose-free RPMI.
(§2) Cells were counted using a CASY counter with the following parameters: E-cur 7.5-22.5, N-cur 5.25-20.5. Cell number was multiplied by peak volume (size) and this number was used to calculate volume of solvent to extract in. Cells were pelleted by centrifugation (400 RCF, 10 minutes, room temperature) at which medium was removed for YSI analysis. Cells were then washed twice with ice cold PBS (Calcium and Magnesium free: Thermo Fisher Scientific) with pulse centrifugation (12,000RCF, 15 seconds, 4° C.) used between and after washes. Cells were then extracted in LC-grade ACN:MeOH:H2O solvent (−20° C., 5:3:2) by disrupting the pellet by pipetting followed by a 5 second vortex. Finally, debris was pelleted by centrifugation (16,000RCF, 10 minutes, 4° C.), supernatant transferred to LC-MS glass vials that were stored at −80° C. until analysis.
(§3) The peak areas of different metabolites were determined using Tracefinder 4.1 software (Thermo Fisher Scientific). Metabolites were identified by accurate mass of the singly charged ion and by known retention times on the pHILIC column. A commercially available standard compound mix (Merck: MSMLS-1EA) had been analysed previously on our LC-MS system to determine accurate ion masses and retention times. The 13C labelling was determined by quantifying peak areas for the accurate mass of all isotopologues of each metabolite.
Biological and technical replicates were processed through Autoplotter (56) and natural abundance was corrected for. Fraction of enrichment was calculated as m+2 and above. For CML samples treated with or without imatinib, multiple paired T-tests were conducted on Log 10 transformed values in Graphpad Prism. The correction for multiple comparisons was the two-stage step-up method of Benjamini, Krieger and Yekutieli with an FDR (Q) value of 10%. For volcano plots Log 10 FC vs Log 10 (q value) are plotted with q values>5% in red and >10% in blue. For normal vs CML comparisons, the process was the same with the exception that unpaired t-tests were used. For PC activity in normal vs CML, this is denoted by fraction m+3. For imatinib vs untreated we look at relative activity to PDH. IE., the m+3/m+2 ratio and conducted multiple t-tests with correction for multiple comparisons being the two-stage step-up method of Benjamini, Krieger and Yekutieli with an FDR (Q) value of 10%.

[3] = test system: CML CD34+ cells; test: LC-MS steady state metabolite analysis of primary CML CD34+ cells; format: cell-based, human; settings: nilotinib treatment, data not shown
Experimental: as §2
The LC system composed of a ZIC-pHILIC column (SeQuant, 150×2.1 mm, 5 μm, Merck KGaA) with a ZIC-pHILIC guard column (SeQuant, 20×2.1 mm) with an UltiMate 3000 HPLC system (Thermo Fisher Scientific). The aqueous mobile-phase solvent was 20 mM ammonium carbonate-0.1% ammonium hydroxide solution and with acetonitrile being used for organic mobile phase. A linear biphasic LC gradient was conducted from 80% organic to 80% aqueous for 15 min for a total run time of 22 min. The column temperature was maintained at 45° C. flow rate set to 200 μL/min.
The MS used in this study was a qExactive Plus Orbitrap Mass Spectrometer (Thermo Fisher Scientific) operating in polarity switching mode. The MS set up was calibrated using a custom CALMIX in both ionization modes before analysis and a tune file targeted towards the lower m/z range was used. Full scan (MS1) data was acquired in both ionization modes in profile mode at 70,000 resolution (at m/z range 75-1000), an automatic gain control (AGC) target of 1×10^6 (max fill time of 250 ms), with spray voltages +4.5 kV (capillary +50V, tube: […], skimmer: +20V) and −3.5 kV (capillary −50V, tube: […], skimmer: −20V) and s-lens RF level of 50 for the front optics. The capillary temperature 375° C., probe temperature 50′C, sheath gas flow rate 25, auxiliary gas flow rate 15a.u. 15 and sweep gas flow rate of 1a.u.
as §3
Two independent experiments were performed, data normalised to first sample in each experiment, processed through Autoplotter (56), samples as experiments, and normalised data as replicates. […] For MSDC-0160 treated samples a batch correction (to non-drug control) was used prior to analysis using Metabonalyst. Volcano plots were generated, and an FDR adjusted t-test threshold 0.1 was utilised. Note both fold changes and p-values are log transformed. Top-25 scoring metabolites are included in heatmap.

[4] = test system: phospho-AMPK; settings: previously shown (ref 42); cited from earlier work
[5] = test system: K562 cells; test: Viability (Annexin V/7AAD) and CFC assays of vector control versus PC knockout K562 cells; format: cell-based, human; settings: 72 hours; 600 nm imatinib or 100 nm omacetaxine
Experimental: (a) Western blot of PC and loading control (tubulin) from vector control or PC knockout K562 cells. (b) Proliferation of K562 cells from A. Shown is average and SEM from 3 independent experiments. (c) Fractional labelling from ^13C6 glucose into indicated metabolites of PC knockout cells are shown (n=3) after 24 hours. Plots were generated using Autoplotter, average and SD are plotted. Statistical analyses were conducted on the m+5 fraction. An ordinary one-way ANOVA was used with Dunnett's test used to correct for multiple comparisons. (d) Cells viability was measured using Annexin V and 7AAD. Cells were either left untreated (UT) or exposed for 72 hours to 600 nm imatinib or 100 nm omacetaxine (OMA). Shown is average and SEM from 4 independent experiments. An ordinary one-way ANOVA was used with Dunnett's test used to correct for multiple comparisons. (e) Colony Forming Cell (CFC) potential of control and […] cells. Cells were either left untreated (UT) or exposed for 72 hours to 600 nm imatinib. Shown is average and SEM from 4 independent experiments. An ordinary one-way ANOVA was used with Dunnett's test used to correct for multiple comparisons. […]

[6] = test system: K562 CML cell line; test: 13C6 glucose tracing in K562 CML cell line; format: cell-based, human; settings: K562, several concentrations
Experimental: as §1
Biological and technical replicates were processed through Autoplotter (56) and natural abundance was corrected for. Fraction of enrichment was calculated as m+2 and above. For CML samples treated with or without imatinib, multiple paired T-tests were conducted on Log 10 transformed values in Graphpad Prism. The correction for multiple comparisons was the two-stage step-up method of Benjamini, Krieger and Yekutieli with an FDR (Q) value of 10%. For volcano plots Log 10 FC vs Log 10 (q value) are plotted with q values>5% in red and >10% in blue. For normal vs CML comparisons, the process was the same with the exception that unpaired t-tests were used. For PC activity in normal vs CML, this is denoted by fraction m+3. For imatinib vs untreated we look at relative activity to PDH. IE., the m+3/m+2 ratio and conducted multiple t-tests with correction for multiple comparisons being the two-stage step-up method of Benjamini, Krieger and Yekutieli with an FDR (Q) value of 10%. To examine contribution to carbon pool we corrected contribution of each isotopologue by the number of carbons it contributes to a given metabolite, i.e., for glutamine contribution from m+5 is greater than m+3. Note that for cell line experiments standard deviation is shown.

## O=C(Nc1ccc(OC(F)(F)Cl)cc1)c1cnc(N2CC[C@@H](O)C2)c(-c2ccn[nH]2)c1 [ABL-001]
[1]; ABL-001 10 mg/kg/day (5 mg/kg BID), 12 weeks engraftment
  engraftment of human CML cells in bone marrow: variable increase in engraftment
[1]; ABL-001 10 mg/kg/day
  CD34+ cells in bone marrow: not affected

## Cc1cn(-c2cc(NC(=O)c3ccc(C)c(Nc4nccc(-c5cccnc5)n4)c3)cc(C(F)(F)F)c2)cn1 [nilotinib]
[2]
  13C-glucose incorporation into TCA cycle metabolites: reduction
[3]
  total metabolite levels: reduction
[4]
  phospho-AMPK in CD34+ CML cells: increase

## COC(=O)C[C@](O)(CCCC(C)(C)O)C(=O)O[C@@H]1C(OC)=C[C@]23CCCN2CCc2cc4c(cc2[C@H]13)OCO4 [omacetaxine mepesuccinate]
[5]
  sensitisation of K562 to the drug by PC ablation, viability and CFC assays: not observed

## N#C/C(=C\c1cn(-c2ccccc2)c2ccccc12)C(=O)O [UK-5099]
[6]
  labelled fractions in alpha-ketoglutarate (AKG) and AKG-derived glutamate: reducing levels of all labelled fractions in these metabolites in a concentration-dependent manner
[6]; data not shown
  glucose contribution to fraction of labelling: concentration-dependent reduction
